{"source": "patent US8614211B2", "about": "“Certain chemical entities, compositions, and methods” (NeuPharma, Inc., priority 2011, dated 2013)", "data": [{"test_system": "A549 cells", "assay": "Inhibition of cell growth in tumor cells, MTT assay", "format": "cell-based", "details": "Homo sapiens, A549, 72 h, read-out: A549 cell IC50", "protocol": "(§1) Inhibition of cell growth by compounds was measured using MTT assay (Mosmann, T., Journal of Immunological Methods, 1983, 65, 55-63). Tumor cell lines were purchased from ATCC (American Type Culture Collection, Manassas, Va.). All cell lines were maintained in RPMI 1640 (Hyclone) supplemented with 10% fetal bovine serum (FBS, Hyclone), glutamine (2 mM, Hyclone), and antibiotics (penicillin 100 U/mL and streptomycin 50 μg/mL) at 37° C. in a humidified atmosphere of 5% CO2 in air. Taxol (positive control, Sigma) and compounds were dissolved in DMSO (Sigma), and the final concentration of DMSO in the medium was 1%. Tumor cells were plated in 96-well plates at densities from 4000 cells/well of a 96-well plate and allowed to adhere/grow for 24 h. They were then treated with various concentrations of drug for 72 h. 3-(4,5-Dimethylthiazol-2-yl)-2,5-diphenyltetrazolium bromide (MTT, Sigma) was used to determine the number of viable cells at the time of compound addition and the number of cells remaining after 72 h compound exposure. The number of cells remaining after 72 h was compared to the number of viable cells at the time of compound addition by measuring the absorbance at 570 nm, allowing for the calculation of growth inhibition.\n(§2) All concentrations of compounds were tested in triplicate and controls were averaged over 4 wells. IC50 was calculated by plotting the concentration of compound vs the percentage of inhibition in treated wells using GraphPad Prism 5. […]", "units": {"IC50": "nM"}, "values": [{"compound": "COc1ccc(C[C@H]2COC(=O)[C@@H]2Cc2ccc(OC(=O)N(C)CCO)c(OC)c2)cc1OC", "note": "[4-(((3R,4R)-4-(3,4-dimethoxybenzyl)-2-oxotetrahydrofuran-3-yl)methyl)-2-methoxyphenyl (2-hydroxyethyl)(methyl)carbamate]", "IC50": 1070}, {"compound": "COc1ccc(C[C@H]2COC(=O)[C@@H]2Cc2ccc(OC(=O)N3CC[C@H](N)C3)c(OC)c2)cc1OC", "note": "[(S)-4-(((3R,4R)-4-(3,4-dimethoxybenzyl)-2-oxotetrahydrofuran-3-yl)methyl)-2-methoxyphenyl 3-aminopyrrolidine-1-carboxylate]", "IC50": 923}, {"compound": "COCCN1CCN(C(=O)Oc2ccc(C[C@H]3C(=O)OC[C@@H]3Cc3ccc(OC)c(OC)c3)cc2OC)CC1", "note": "[4-(((3R,4R)-4-(3,4-dimethoxybenzyl)-2-oxotetrahydrofuran-3-yl)methyl)-2-methoxyphenyl 4-(2-methoxyethyl)piperazine-1-carboxylate]", "IC50": 788}, {"compound": "COc1ccc(C[C@H]2COC(=O)[C@@H]2Cc2ccc(OC(=O)N3CCNCC3)c(OC)c2)cc1OC", "note": "[4-(((3R,4R)-4-(3,4-dimethoxybenzyl)-2-oxotetrahydrofuran-3-yl)methyl)-2-methoxyphenyl piperazine-1-carboxylate]", "IC50": 799}, {"compound": "COc1ccc(C[C@H]2COC(=O)[C@@H]2Cc2ccc(OC(=O)N(C)CCN(C)C)c(OC)c2)cc1OC", "note": "[4-(((3R,4R)-4-(3,4-dimethoxybenzyl)-2-oxotetrahydrofuran-3-yl)methyl)-2-methoxyphenyl (2-(dimethylamino)ethyl)(methyl)carbamate]", "IC50": 1020}, {"compound": "COc1ccc(C[C@H]2COC(=O)[C@@H]2Cc2ccc(OC(=O)N(C)C)c(OC)c2)cc1OC", "note": "[4-(((3R,4R)-4-(3,4-dimethoxybenzyl)-2-oxotetrahydrofuran-3-yl)methyl)-2-methoxyphenyl dimethylcarbamate]", "IC50": 521}, {"compound": "COc1ccc(C[C@H]2COC(=O)[C@@H]2Cc2ccc(OC(=O)N3CCN(C)CC3)c(OC)c2)cc1OC", "note": "[4-(((3R,4R)-4-(3,4-dimethoxybenzyl)-2-oxotetrahydrofuran-3-yl)methyl)-2-methoxyphenyl 4-methylpiperazine-1-carboxylate]", "IC50": 850}, {"compound": "COCCN(C)C(=O)Oc1ccc(C[C@H]2C(=O)OC[C@@H]2Cc2ccc(OC)c(OC)c2)cc1OC", "note": "[4-(((3R,4R)-4-(3,4-dimethoxybenzyl)-2-oxotetrahydrofuran-3-yl)methyl)-2-methoxyphenyl (2-methoxyethyl)(methyl)carbamate]", "IC50": 687}]}, {"test_system": "A549 cells", "assay": "Inhibition of cell growth in tumor cells, MTT assay", "format": "cell-based", "details": "Homo sapiens; MTT assay, 72 h compound exposure, A549 cells; read-out: A549 cell IC50", "protocol": "as §1, §2", "units": {"IC50": "nM"}, "values": [{"compound": "COc1ccc(C[C@H]2COC(=O)[C@@H]2Cc2ccc(OC(=O)N3CCOCC3)c(OC)c2)cc1OC", "note": "[4-(((3R,4R)-4-(3,4-dimethoxybenzyl)-2-oxotetrahydrofuran-3-yl)methyl)-2-methoxyphenyl morpholine-4-carboxylate]", "IC50": 767}, {"compound": "COc1ccc(C[C@H]2COC(=O)[C@@H]2Cc2ccc(OC(=O)N3CCCC3)c(OC)c2)cc1OC", "note": "[4-(((3R,4R)-4-(3,4-dimethoxybenzyl)-2-oxotetrahydrofuran-3-yl)methyl)-2-methoxyphenyl pyrrolidine-1-carboxylate]", "IC50": 785}, {"compound": "COc1ccc(C[C@H]2COC(=O)[C@@H]2Cc2ccc(OC(=O)N3CC[C@@H](O)C3)c(OC)c2)cc1OC", "note": "[(R)-4-(((3R,4R)-4-(3,4-dimethoxybenzyl)-2-oxotetrahydrofuran-3-yl)methyl)-2-methoxyphenyl 3-hydroxypyrrolidine-1-carboxylate]", "IC50": 587}, {"compound": "COc1ccc(C[C@H]2COC(=O)[C@@H]2Cc2ccc(OC(=O)N3CC[C@@H](NC(=O)OC(C)(C)C)C3)c(OC)c2)cc1OC", "note": "[(R)-4-(((3R,4R)-4-(3,4-dimethoxybenzyl)-2-oxotetrahydrofuran-3-yl)methyl)-2-methoxyphenyl 3-((tert-butoxycarbonyl)amino) pyrrolidine-1-carboxylate]", "IC50": 585}, {"compound": "COc1ccc(C[C@H]2COC(=O)[C@@H]2Cc2ccc(OC(=O)N3CCCCC3)c(OC)c2)cc1OC", "note": "[4-(((3R,4R)-4-(3,4-dimethoxybenzyl)-2-oxotetrahydrofuran-3-yl)methyl)-2-methoxyphenyl piperidine-1-carboxylate]", "IC50": 659}, {"compound": "COc1ccc(C[C@H]2COC(=O)[C@@H]2Cc2ccc(OC(=O)N3CC[C@H](O)C3)c(OC)c2)cc1OC", "note": "[(S)-4-(((3R,4R)-4-(3,4-dimethoxybenzyl)-2-oxotetrahydrofuran-3-yl)methyl)-2-methoxyphenyl 3-hydroxypyrrolidine-1-carboxylate]", "IC50": 841}]}]}
